According to patent US20240228488A1 (TAKEDA PHARMACEUTICAL COMPANY LIMITED, priority 2021, published 2024):

target: human activated kallikrein enzyme (Homo sapiens, UniProt P03952); assay: Plasma kallikrein inhibition, fluorogenic PFR-AMC substrate, 500 pM activated kallikrein format; assay type: biochemical; conditions: 500 pM activated kallikrein, 300 uM PFR-AMC, 30 min preincubation, 10 min reaction; read-out: Primary Dose Response Assay: Average EC50
Method: Compounds were evaluated for inhibition of the human activated kallikrein enzyme in two formats of an assay employing a fluorogenic peptide substrate. In one assay format, the concentrations of reagents were as follows: 20 mM Tris pH 7.5, 1 mM EDTA, 150 mM sodium chloride, 0.1% PEG-400, 0.1% Triton X-100, 500 pM activated kallikrein enzyme, 300 uM Pro-Phe-Arg-7-amido-4-methylcoumarin (PFR-AMC) substrate. Prior to reaction initiation with substrate, enzyme and inhibitors were preincubated for 30 min at room temperature. After initiation with substrate, reactions were incubated for 10 min at room temperature and fluorescence emission at 460 nm from 380 nm excitation measured with a microplate reader. In another assay format, the concentrations of reagents were as follows: 20 mM Tris pH 7.5, 1 mM EDTA, 150 mM sodium chloride, 0.1% PEG-400, 0.1% Triton X-100, 5 pM activated kallikrein enzyme, 300 uM PFR-AMC substrate. Prior to reaction initiation with substrate, enzyme and inhibitors were preincubated for 30 min at room temperature. After initiation with substrate, reactions were incubated for 18 hr at room temperature and fluorescence emission at 460 nm from 380 nm excitation measured with a microplate reader.
Table 49 provides the results of the assay in the format with 500 pM activated kallikrein assay. For the compounds listed in Table 49, the EC50 values are reported according to the following ranges: A≤1.0 nM; 1.0 nM<B≤10 nM; 10 nM<C≤100 nM; 100 nM<D≤1000 nM; 1000 nM<E≤6000 nM; 6000 nM<F.
Table 51 provides comparative plasma kallikrein inhibition potency in the assay format with 500 pM activated kallikrein assay (described in detail in a preceding example). For the compounds listed in Table 51, the EC50 values are reported according to the following ranges: A≤1.0 nM; 1.0 nM<B≤10 nM; 10 nM<C≤100 nM; 100 nM<D≤1000 nM; 1000 nM<E≤6000 nM; 6000 nM<F.

Sequence of human activated kallikrein enzyme (P03952 391-638 limits assumed): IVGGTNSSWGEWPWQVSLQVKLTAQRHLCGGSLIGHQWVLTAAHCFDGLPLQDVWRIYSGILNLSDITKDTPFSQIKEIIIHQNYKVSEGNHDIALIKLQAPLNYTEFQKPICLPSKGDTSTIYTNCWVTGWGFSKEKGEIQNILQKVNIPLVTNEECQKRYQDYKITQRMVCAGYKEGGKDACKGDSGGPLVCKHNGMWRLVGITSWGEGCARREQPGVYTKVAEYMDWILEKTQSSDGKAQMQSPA
Sequence of human activated kallikrein enzyme (P03952 20-390 partner limits assumed): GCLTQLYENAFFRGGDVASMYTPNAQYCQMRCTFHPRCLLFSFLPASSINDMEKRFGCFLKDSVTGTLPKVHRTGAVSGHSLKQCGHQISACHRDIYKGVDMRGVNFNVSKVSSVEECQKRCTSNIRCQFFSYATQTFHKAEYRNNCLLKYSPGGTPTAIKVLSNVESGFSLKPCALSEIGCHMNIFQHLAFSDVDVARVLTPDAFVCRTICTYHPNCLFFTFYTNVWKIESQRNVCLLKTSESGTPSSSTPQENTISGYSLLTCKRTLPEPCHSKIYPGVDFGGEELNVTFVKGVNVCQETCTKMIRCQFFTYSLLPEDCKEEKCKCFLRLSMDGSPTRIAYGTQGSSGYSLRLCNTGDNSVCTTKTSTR

Row | Structure (SMILES) | EC50
1 | O=C(Nc1cc(NCc2cn3cc(C4CC4)ccc3n2)ncn1)[C@H]1C[C@@H]1c1cc(Cl)ccc1F (racemic) [Example 44, rac-(1S*,2S*)-2-(5-chloro-2-fluorophenyl)-N-(6-(((6-cyclopropylimidazo[1,2-a]pyridin-2-yl)methyl)amino)pyrimidin-4-yl)cyclopropane-1-carboxamide] | 10 to 100 nM
2 | O=C(Nc1cc(NCc2cn3cc(C4CC4)ccc3n2)ncn1)[C@H]1C[C@@H]1c1cc(F)cc(Cl)c1 (racemic) [Example 46, rac-(1S*,2S*)-2-(3-chloro-5-fluorophenyl)-N-(6-(((6-cyclopropylimidazo[1,2-a]pyridin-2-yl)methyl)amino)pyrimidin-4-yl)cyclopropane-1-carboxamide] | 10 to 100 nM
3 | CCOC(=O)CCc1cc(C2CC2)cn2cc(CNc3cc(NC(=O)[C@H]4C[C@@H]4c4cccc(Cl)c4)ncn3)nc12 (racemic) [Example 61, rac-ethyl 3-(2-(((6-((1S*,2S*)-2-(3-chlorophenyl)cyclopropane-1-carboxamido)pyrimidin-4-yl)amino)methyl)-6-cyclopropylimidazo[1,2-α]pyridin-8-yl)propanoate] | 1 to 10 nM
4 | N#Cc1ccc(Cl)cc1[C@H]1C[C@@H]1C(=O)Nc1nccc2nn(Cc3cn4cc(C5CC5)ccc4n3)cc12 (racemic) [Example 579, rac-(1S*,2S*)-2-(5-chloro-2-cyanophenyl)-N-(2-((6-cyclopropylimidazo[1,2-a]pyridin-2-yl)methyl)-2H-pyrazolo[4,3-c]pyridin-4-yl)cyclopropane-1-carboxamide] | < 1 nM
5 | COc1cc([C@H]2C[C@@H]2C(=O)Nc2cc(NCc3cn4cc(C5CC5)ccc4n3)ncn2)cc(N)n1 (racemic) [Example 277, rac-(1S*,2S*)-2-(2-amino-6-methoxypyridin-4-yl)-N-(6-(((6-cyclopropylimidazo[1,2-a]pyridin-2-yl)methyl)amino)pyrimidin-4-yl)cyclopropane-1-carboxamide] | 100 to 1000 nM
6 | Cc1ccnc([C@H]2C[C@@H]2C(=O)Nc2cc(N[C@H](C)c3cn4cc(C5CC5)cc(N5CC(=O)NC5=O)c4n3)nc(C)n2)n1 [Example 532, (1S,2S)-N-(6-(((R)-1-(6-cyclopropyl-8-(2,4-dioxoimidazolidin-1-yl)imidazo[1,2-a]pyridin-2-yl)ethyl)amino)-2-methylpyrimidin-4-yl)-2-(4-methylpyrimidin-2-yl)cyclopropane-1-carboxamide] | < 1 nM
7 | Cc1ccnc([C@H]2C[C@@H]2C(=O)Nc2cc(OCc3cn4cc(C5CC5)cc(N5CC(=O)N(C)C5=O)c4n3)nc(C(C)O)n2)n1 (stereo partly drawn) [Example 662, (1S,2S)—N-(6-((6-cyclopropyl-8-(3-methyl-2,4-dioxoimidazolidin-1-yl)imidazo[1,2-a]pyridin-2-yl)methoxy)-2-(1-hydroxyethyl)pyrimidin-4-yl)-2-(4-methylpyrimidin-2-yl)cyclopropane-1-carboxamide] | < 1 nM
8 | N#CC1(c2cccc(Cl)c2)CC1C(=O)Nc1cc(NCc2cn3cc(C4CC4)ccc3n2)ncn1 (centres unmarked) [Example 349, 2-(3-chlorophenyl)-2-cyano-N-(6-(((6-cyclopropylimidazo[1,2-a]pyridin-2-yl)methyl)amino)pyrimidin-4-yl)cyclopropane-1-carboxamide] | > 6000 nM
9 | Cc1ccnc([C@H]2C[C@@H]2C(=O)Nc2cc(N[C@H](C)c3cn4cc(C5CC5)cc(N5CC(=O)N(C)C5=O)c4n3)nc(CCO)n2)n1 [Example 468, (1S,2S)—N-(6-(((R)-1-(6-cyclopropyl-8-(3-methyl-2,4-dioxoimidazolidin-1-yl)imidazo[1,2-a]pyridin-2-yl)ethyl)amino)-2-(2-hydroxyethyl)pyrimidin-4-yl)-2-(4-methylpyrimidin-2-yl)cyclopropane-1-carboxamide] | < 1 nM
10 | O=C(Nc1nccc2nn(Cc3cn4cc(C5CC5)ccc4n3)nc12)[C@H]1C[C@@H]1c1cccc(Cl)c1 [Example 583, (1S,2S)-2-(3-chlorophenyl)-N-(2-((6-cyclopropylimidazo[1,2-a]pyridin-2-yl)methyl)-2H-[1,2,3]triazolo[4,5-c]pyridin-4-yl)cyclopropane-1-carboxamide] | 1 to 10 nM
11 | Cc1ccnc([C@@H]2C[C@H]2C(=O)Nc2cc(NCc3cn4cc(C5CC5)cc(S(C)(=O)=O)c4n3)ncn2)n1 (single isomer, unassigned) [Example 323] | 10 to 100 nM
12 | Cc1ccnc([C@H]2C[C@@H]2C(=O)Nc2cc(N[C@@H](C)c3cn4cc(C(F)F)cc(N5CC(=O)N(C)C5=O)c4n3)ncn2)n1 [Example 416, (1S,2S)-N-(6-(((S)-1-(6-(difluoromethyl)-8-(3-methyl-2,4-dioxoimidazolidin-1-yl)imidazo[1,2-a]pyridin-2-yl)ethyl)amino)pyrimidin-4-yl)-2-(4-methylpyrimidin-2-yl)cyclopropane-1-carboxamide] | 10 to 100 nM
13 | Cc1ccnc([C@H]2C[C@@H]2C(=O)Nc2cc(CCc3cn4cc(C5CC5)cc(N5CC(=O)N(C)C5=O)c4n3)cnn2)n1 [Example 667, (1S,2S)—N-(5-(2-(6-cyclopropyl-8-(3-methyl-2,4-dioxoimidazolidin-1-yl)imidazo[1,2-a]pyridin-2-yl)ethyl)pyridazin-3-yl)-2-(4-methylpyrimidin-2-yl)cyclopropane-1-carboxamide] | < 1 nM
14 | O=C(Nc1cc(NCc2cn3cc(C4CC4)ccc3n2)nc(N2CCCC2)n1)[C@@H]1C[C@H]1c1cccc(Cl)c1 (racemic) [Example 105, rac-(1S*,2S*)-2-(3-chlorophenyl)-N-(6-(((6-cyclopropylimidazo[1,2-a]pyridin-2-yl)methyl)amino)-2-(pyrrolidin-1-yl)pyrimidin-4-yl)cyclopropane-1-carboxamide] | 100 to 1000 nM
15 | Cc1ccnc([C@H]2C[C@@H]2C(=O)Nc2cn3c(Cc4cn5cc(C6CC6)cc(N6CC(=O)N(C)C6=O)c5n4)nnc3cn2)n1 [Example 630, (1S,2S)—N-(3-((6-cyclopropyl-8-(3-methyl-2,4-dioxoimidazolidin-1-yl)imidazo[1,2-a]pyridin-2-yl)methyl)-[1,2,4]triazolo[4,3-a]pyrazin-6-yl)-2-(4-methylpyrimidin-2-yl)cyclopropane-1-carboxamide] | 1 to 10 nM

Further lines, results first:

Row | EC50 | Structure (SMILES)
16 | 10 to 100 nM | CC(C)c1ccc2nc(CNc3cc(NC(=O)[C@H]4C[C@@H]4c4cccc(Cl)c4)ncn3)cn2c1 [Example I-160, (1S,2S)-2-(3-chlorophenyl)-N-(6-(((6-isopropylimidazo[1,2-a]pyridin-2-yl)methyl)amino)pyrimidin-4-yl)cyclopropane-1-carboxamide]
17 | 100 to 1000 nM | N#Cc1cc(Cl)sc1[C@H]1C[C@@H]1C(=O)Nc1cc(NCc2cn3cc(C4CC4)ccc3n2)ncn1 (racemic) [Example I-179, rac-(1S*,2S*)-2-(5-chloro-3-cyanothiophen-2-yl)-N-(6-(((6-cyclopropylimidazo[1,2-a]pyridin-2-yl)methyl)amino)pyrimidin-4-yl)cyclopropane-1-carboxamide]
18 | 1 to 10 nM | CN1C(=O)CN(c2cc(C3CC3)cn3cc(CNc4cc(NC(=O)[C@H]5C[C@@H]5c5nccc(C(F)(F)F)n5)ncn4)nc23)C1=O (racemic) [Example I-165, rac-(1S*,2S*)-N-(6-(((6-cyclopropyl-8-(3-methyl-2,4-dioxoimidazolidin-1-yl)imidazo[1,2-a]pyridin-2-yl)methyl)amino)pyrimidin-4-yl)-2-(4-(trifluoromethyl)pyrimidin-2-yl)cyclopropane-1-carboxamide]
19 | > 6000 nM | CC(C)(C)OC(=O)Nc1ccc([C@H]2C[C@@H]2C(=O)Nc2cc(NCc3cn4cc(C5CC5)ccc4n3)ncn2)cc1Cl (racemic) [Example I-188, rac-tert-butyl (2-chloro-4-((1S*,2S*)-2-((6-(((6-cyclopropylimidazo[1,2-a]pyridin-2-yl)methyl)amino)pyrimidin-4-yl)carbamoyl)cyclopropyl)phenyl)carbamate]
20 | < 1 nM | Cc1cc(NC(=O)[C@H]2C[C@@H]2c2nccc(C)n2)nc(OCc2cn3cc(C4CC4)cc(N4CC(=O)N(C)C4=O)c3n2)n1 [Example I-652, (1S,2S)—N-(2-((6-cyclopropyl-8-(3-methyl-2,4-dioxoimidazolidin-1-yl)imidazo[1,2-a]pyridin-2-yl)methoxy)-6-methylpyrimidin-4-yl)-2-(4-methylpyrimidin-2-yl)cyclopropane-1-carboxamide]
21 | > 6000 nM | COc1cc([C@H]2C[C@@H]2C(=O)Nc2cc(NCc3cn4cc(C5CC5)ccc4n3)ncn2)cc(Cl)n1 (racemic) [Example I-187, rac-(1S*,2S*)-2-(2-chloro-6-methoxypyridin-4-yl)-N-(6-(((6-cyclopropylimidazo[1,2-a]pyridin-2-yl)methyl)amino)pyrimidin-4-yl)cyclopropane-1-carboxamide]

same assay, conditions: comparative compounds, 500 pM activated kallikrein format; read-out: Primary Dose Response Assay: Average EC50

Row | EC50 | Structure (SMILES)
22 | 1000 to 6000 nM | O=C(NCCc1cccc(Br)c1)c1cnn(Cc2cn3cc(C4CC4)ccc3n2)c1
23 | 1000 to 6000 nM | O=C(Nc1cc(NCc2cn3cc(C4CC4)ccc3n2)ncn1)NC1CC1c1cccc(Cl)c1 (centres unmarked)
